Test results reported in patent US20250314641A1, “OBLIQUE LINE SCANNER SYSTEMS AND METHODS FOR HIGH THROUGHPUT SINGLE MOLECULE TRACKING IN LIVING CELLS” (EIKON THERAPEUTICS, INC., priority 2022, published 2025).

System: Halo-PCNA labeled U2OS cells
Assay: Cell cycle phase assignment by machine learning model in Halo-PCNA U2OS cells
Type: cell-based
Conditions: 2 mM Thymidine (S-phase block) or 10 mM RO-3306 (G2-M block)
Experimental: FIGS. 20A-20F illustrate that OLS can be applied to capture the inter and intracellular heterogeneity of single protein dynamics. FIG. 20A depicts the analysis of sources of variance in SMT for KEAP1 measured under either OLS or HILO illumination. The contribution of cell to cell variation is 17-32 fold greater than that of FOV level or well to well variances, respectively. FIG. 20B depicts representative images of Halo-PCNA labeled cells treated with 2 mM Thymidine or 10 mM RO-3306 (top). Cell cycle prediction from a machine learning (ML) model used to color cell by cycle phase (bottom). FIG. 20C depicts the quantification of the fraction of cells in each cell phase in response to cycle block treatments in FIG. 20B. The following number of cells were analyzed for each condition: 34,067 for DMSO, 3,831 for RO-3306 and 6,044 for thymidine. […]
Time-lapse microscopy was conducted on Halo-PCNA labeled with 50 nM JFX650, to achieve near-saturating labeling, for 12 hours at 12 frames per hour (FIG. 21A). […] When cells in each cell phase were analyzed separately, it became apparent that the slow-moving population of PCNA was exclusively found in cell predicted to be in S-phase and that there was a marked decrease in the fast-moving population (FIG. 20E). […]
Cell cycle as provided above can be automatically determined using an image (e.g., an image of JF549-labeled PCNA). […]

Row | Compound | fraction of cells assigned to cell cycle phases
1 | O=C1NC(=NCc2cccs2)S/C1=C\c1ccc2ncccc2c1 [RO-3306] | expected enrichment in the fraction of cells assigned to the respective cell phases
2 | Cc1cn([C@H]2C[C@H](O)[C@@H](CO)O2)c(=O)[nH]c1=O [thymidine] | expected enrichment in the fraction of cells assigned to the respective cell phases
